The test system of this test is isolated microspores of vegetable fennel (VF-2). Kind of test: Isolated microspore culture of fennel with EBR in the medium (embryo formation). It is filed as cell-based, fennel (Foeniculum vulgare). The note with it: FIG. 5. On the procedure:
FIG. 5. Effect of 24-Epibrassinolide on microspore embryogenesis of vegetable fennel (VF-2). A=NLN-25; B=NLN-25+0.1 mM EBR; C=NLN-25+1.0 mM EBR; D=NLN-25 changed to NLN-10; E=NLN-25+0.1 mM EBR changed to NLN-10; and F=NLN-25+1.0 mM EBR changed to NLN-10.
Several basal media were compared for fennel microspore embryogenesis. Donor plants for microspore culture were grown as described herein. Flower buds were measured and buds in the range of 1-3 mm were put into Lipshaw baskets. The Lipshaw baskets were immersed for one minute in 70% ethanol in a sterile beaker and placed on a shaker. After one minute, the ethanol was removed and the baskets containing the buds were rinsed with sterile water. The Lipshaw baskets were immersed for 15 min in 6% sodium hypochlorite in a sterile beaker placed on a shaker. After 15 min, the sodium hypochlorite was removed by three 5-min washes with sterile water. The buds were removed from the Lipshaw baskets with sterile forceps and placed in a mortar with 5 mL of half-strength Gamborg B5 medium with 13% sucrose. The buds were gently crushed with a pestle, and the resulting suspension was filtered through a 44 μm nylon screen cloth into a 50 mL sterile centrifuge tube. The mortar and filter were rinsed three times with 5 mL of half-strength B5-13 which was filtered and added to the suspension to a total of 20 mL. […]

The structures appear in SMILES notation.

For `CC(C)[C@@H](C)[C@@H](O)[C@H](O)[C@@H](C)[C@H]1CC[C@H]2[C@@H]3COC(=O)[C@H]4C[C@H](O)[C@H](O)C[C@]4(C)[C@H]3CC[C@]12C` [24 EBR, 24-epibrassinolide], the “fennel embryo formation (microspore embryogenesis)” value was “somewhat inhibitory” (continued exposure to EBR, NLN-25 medium, 32° C. for 3 days then 24° C.); “stimulatory” (media change after 72 h to a lower sucrose concentration and removal of the EBR).

Source of the values: patent US7923248B2, “Methods for producing microspore derived doubled haploid apiaceae” (NRC, priority 2005, dated 2011).
